Here are results for seven molecules from patent US20250326753A1, “DUAL CXCR4-BTK INHIBITORS” (X4 Pharmaceuticals, Inc., priority 2022, published 2025).

pIC50: −log10 of the molar value. Where two headings read alike, the source gives them in different places. Bounds are passed on as bounds.

One assay deals with T1, BMX (Homo sapiens, UniProt P51813).
T1 construct: purchased Reaction Biology Europe GmbH
T1 sequence (P51813 1-675): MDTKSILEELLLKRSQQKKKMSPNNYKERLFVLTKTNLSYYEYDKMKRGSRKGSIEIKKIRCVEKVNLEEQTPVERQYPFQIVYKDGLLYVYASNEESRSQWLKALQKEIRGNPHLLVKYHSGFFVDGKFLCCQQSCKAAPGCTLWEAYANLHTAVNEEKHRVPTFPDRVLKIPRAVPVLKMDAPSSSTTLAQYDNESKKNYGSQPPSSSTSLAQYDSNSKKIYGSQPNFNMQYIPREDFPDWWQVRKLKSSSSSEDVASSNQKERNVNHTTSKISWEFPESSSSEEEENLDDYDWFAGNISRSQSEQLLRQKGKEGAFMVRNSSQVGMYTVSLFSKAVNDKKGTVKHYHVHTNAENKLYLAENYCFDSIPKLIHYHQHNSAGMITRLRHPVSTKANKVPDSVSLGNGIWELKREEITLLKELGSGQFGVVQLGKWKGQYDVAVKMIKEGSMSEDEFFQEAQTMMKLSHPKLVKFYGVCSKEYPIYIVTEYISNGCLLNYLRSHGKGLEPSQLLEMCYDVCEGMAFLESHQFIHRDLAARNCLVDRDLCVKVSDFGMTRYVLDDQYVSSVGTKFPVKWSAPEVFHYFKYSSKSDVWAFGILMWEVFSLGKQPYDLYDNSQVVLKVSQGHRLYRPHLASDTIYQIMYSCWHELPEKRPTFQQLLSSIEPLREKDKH
Briefly: PanQinase kinase panel: BMX. In kind it is biochemical. As to conditions: read-out: INHIBITORY EFFECT @ 1 uM: BMX. On the procedure: (§1) Screening procedures were performed in accordance with the company's on-line protocol [accessed on-line Mar.
(§2) For each kinase, the median value of the cpm of three wells was defined as “low control” (n=3). This value reflects unspecific binding of radioactivity to the plate in the absence of a protein kinase but in the presence of the substrate. Additionally, for each kinase the median value of the cpm of three other wells was taken as the “high control,” i.e. full activity in the absence of any inhibitor (n=3). The difference between high and low control of each enzyme was taken as 100% activity.
(§3) As part of the data evaluation the low control of each kinase was subtracted from the high control value as well as from their corresponding “compound values”.

The next assay addresses T2, MINK1 (Homo sapiens, UniProt Q8N4C8).
T2 construct: purchased Reaction Biology Europe GmbH
Briefly: PanQinase kinase panel: MINK1. In kind it is biochemical. As to conditions: read-out: INHIBITORY EFFECT @ 1 uM: MINK1. The method, then: as §1, §2
(§4) As part of the data evaluation the low control of each kinase was subtracted from the high control value as well as from their corresponding “compound values”. The residual activity (in %) for each compound well was calculated by using the following formula: Res. Activity (%)=100×[(signal of compound−low control)/(high control−low control)].

The next assay deals with T3, PAK1 (Homo sapiens, UniProt Q13153).
T3 construct: purchased Reaction Biology Europe GmbH
Briefly: PanQinase kinase panel: PAK1. In kind it is biochemical. As to conditions: read-out: INHIBITORY EFFECT @ 1 uM: PAK1. The method, then:
as §1, §2, §4

Another assay concerns the target T4, SRMS (Homo sapiens, UniProt Q9H3Y6).
T4 construct: purchased Reaction Biology Europe GmbH
Briefly: PanQinase kinase panel: SRMS. The class given is biochemical. The conditions noted are these: read-out: INHIBITORY EFFECT @ 1 uM: SRMS. On the procedure:
as §1, §2, §4

The target of another assay is T5, AuroraA (Homo sapiens, UniProt O14965).
T5 construct: purchased Reaction Biology Europe GmbH
T5 sequence (O14965 1-403): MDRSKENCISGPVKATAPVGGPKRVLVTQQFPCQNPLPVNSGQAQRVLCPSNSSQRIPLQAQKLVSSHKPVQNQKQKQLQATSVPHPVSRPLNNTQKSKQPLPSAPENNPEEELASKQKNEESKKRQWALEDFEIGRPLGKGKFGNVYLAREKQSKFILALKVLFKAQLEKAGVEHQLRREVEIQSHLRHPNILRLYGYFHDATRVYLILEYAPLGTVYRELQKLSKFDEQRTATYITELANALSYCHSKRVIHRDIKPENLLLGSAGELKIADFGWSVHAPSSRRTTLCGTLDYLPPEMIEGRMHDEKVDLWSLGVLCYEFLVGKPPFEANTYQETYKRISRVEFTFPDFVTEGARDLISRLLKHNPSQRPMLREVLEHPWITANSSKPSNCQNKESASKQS
Briefly: PanQinase kinase panel: AuroraA. In kind it is biochemical. The method, then: as §1, §2, §4

Another assay has as its target T6, ERBB2 (Homo sapiens, UniProt P04626).
T6 construct: purchased Reaction Biology Europe GmbH
Briefly: PanQinase kinase panel: ERBB2. The class given is biochemical. As to conditions: read-out: INHIBITORY EFFECT @ 1 uM: ERBB2. On the procedure: as §1, §2, §4

The test system of a further assay is Ramos cell line. Briefly: Ramos cell line viability assay (CellTiter-Glo, 72 hr). As to conditions: Homo sapiens. In kind it is cell-based. The method, then:
Inhibition of non-Hodgkin lymphoma B-cell proliferation by compounds of the present invention was evaluated in a Ramos cell line. Ramos is a B lymphocyte cell line that was derived from a patient with Burkitt's Lymphoma.
Cell viability was analyzed with the CellTiter-Glo® Luminescent Cell Viability Assay Kit (G7572, Promega), according to the manufacturer's instruction. Cells were seeded into a 96-well/384-well plate and then incubated in 5% CO2 at 37° C. overnight. Compounds were added to the cells, with 9-10 dose points in duplicates in 3-fold dilution from a top concentration of 30 μM, and incubated in 5% CO2 at 37° C. for 72 hr. The 96-well/384-well plate was equilibrated at room temperature for 30 min. 50 μl/25 μl of CellTiter-Glo® Reagent was added to each well and mixed for 2 min on an orbital shaker to induce cell lysis. The 96-well/384-well plate was incubated at room temperature for 10 min to stabilize luminescent signal. Luminescence was detected on a PerkinElmer EnVision Multimode Plate Reader as relative luminescence units (RLU).

The target in another assay is T7, SRC (Homo sapiens, UniProt P12931).
T7 construct: purchased Reaction Biology Europe GmbH
Briefly: PanQinase kinase panel: SRC. The class given is biochemical. The conditions noted are these: read-out: INHIBITORY EFFECT @ 1 uM: SRC. On the procedure: as §1, §2, §3

A further assay concerns GBM-U251MG. Briefly: GBM cell proliferation, U251MG (cell-based cancer efficacy assays). The conditions noted are these: Homo sapiens, U-251; Table 6B.
The next assay deals with T8, FYN (Homo sapiens, UniProt P06241).
T8 construct: purchased Reaction Biology Europe GmbH
Briefly: PanQinase kinase panel: FYN. As to conditions: read-out: INHIBITORY EFFECT @ 1 uM: FYN. In kind it is biochemical. The method, then: as §1, §2, §4

The next assay has as its target T9, YES (Homo sapiens, UniProt P07947).
T9 construct: purchased Reaction Biology Europe GmbH
Briefly: PanQinase kinase panel: YES. In kind it is biochemical. As to conditions: read-out: INHIBITORY EFFECT @ 1 uM: YES. On the procedure: as §1, §2, §3

[1] abbreviates: at 1 μM, read-out: inhibition of AuroraA.
The mark [2] stands for this setting: read-out: INHIBITORY EFFECT @ 1 uM: AuroraA.
The mark [3] stands for this setting: class, read-out: Ramos viability IC50.

T2 sequence (Q8N4C8 whole entry): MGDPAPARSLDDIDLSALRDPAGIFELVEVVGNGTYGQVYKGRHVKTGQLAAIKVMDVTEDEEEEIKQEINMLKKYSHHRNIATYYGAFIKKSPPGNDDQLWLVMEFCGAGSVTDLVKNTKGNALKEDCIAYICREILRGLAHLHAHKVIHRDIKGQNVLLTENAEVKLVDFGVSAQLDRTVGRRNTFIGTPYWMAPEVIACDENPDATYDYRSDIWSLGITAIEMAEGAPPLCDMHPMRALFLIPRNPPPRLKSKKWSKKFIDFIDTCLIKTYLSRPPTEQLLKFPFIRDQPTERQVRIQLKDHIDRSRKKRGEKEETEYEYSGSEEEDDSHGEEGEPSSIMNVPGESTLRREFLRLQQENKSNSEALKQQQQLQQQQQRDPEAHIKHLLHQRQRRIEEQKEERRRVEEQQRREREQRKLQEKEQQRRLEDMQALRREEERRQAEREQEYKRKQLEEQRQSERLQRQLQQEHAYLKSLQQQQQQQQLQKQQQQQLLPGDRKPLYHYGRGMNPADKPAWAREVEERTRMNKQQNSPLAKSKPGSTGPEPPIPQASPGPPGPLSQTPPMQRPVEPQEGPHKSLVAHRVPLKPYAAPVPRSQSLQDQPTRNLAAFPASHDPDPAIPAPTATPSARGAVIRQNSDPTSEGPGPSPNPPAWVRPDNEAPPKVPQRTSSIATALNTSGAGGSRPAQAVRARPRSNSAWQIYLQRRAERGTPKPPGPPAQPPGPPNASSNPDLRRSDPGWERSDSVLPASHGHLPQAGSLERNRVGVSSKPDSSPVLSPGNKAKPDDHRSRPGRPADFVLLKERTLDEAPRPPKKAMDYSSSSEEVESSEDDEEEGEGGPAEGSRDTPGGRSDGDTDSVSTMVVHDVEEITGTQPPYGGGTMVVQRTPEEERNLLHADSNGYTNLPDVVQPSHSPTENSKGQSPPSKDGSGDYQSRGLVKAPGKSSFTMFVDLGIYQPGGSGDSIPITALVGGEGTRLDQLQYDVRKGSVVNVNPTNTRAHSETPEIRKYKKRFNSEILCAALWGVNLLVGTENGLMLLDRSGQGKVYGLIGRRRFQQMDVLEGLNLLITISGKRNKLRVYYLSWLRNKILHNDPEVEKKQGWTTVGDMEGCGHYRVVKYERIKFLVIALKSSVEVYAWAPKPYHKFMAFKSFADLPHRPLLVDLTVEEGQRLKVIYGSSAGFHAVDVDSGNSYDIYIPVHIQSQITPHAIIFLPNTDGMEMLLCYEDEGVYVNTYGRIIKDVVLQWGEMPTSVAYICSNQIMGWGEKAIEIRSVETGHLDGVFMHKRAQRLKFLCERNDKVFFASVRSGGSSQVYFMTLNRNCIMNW
T4 sequence (Q9H3Y6 whole entry): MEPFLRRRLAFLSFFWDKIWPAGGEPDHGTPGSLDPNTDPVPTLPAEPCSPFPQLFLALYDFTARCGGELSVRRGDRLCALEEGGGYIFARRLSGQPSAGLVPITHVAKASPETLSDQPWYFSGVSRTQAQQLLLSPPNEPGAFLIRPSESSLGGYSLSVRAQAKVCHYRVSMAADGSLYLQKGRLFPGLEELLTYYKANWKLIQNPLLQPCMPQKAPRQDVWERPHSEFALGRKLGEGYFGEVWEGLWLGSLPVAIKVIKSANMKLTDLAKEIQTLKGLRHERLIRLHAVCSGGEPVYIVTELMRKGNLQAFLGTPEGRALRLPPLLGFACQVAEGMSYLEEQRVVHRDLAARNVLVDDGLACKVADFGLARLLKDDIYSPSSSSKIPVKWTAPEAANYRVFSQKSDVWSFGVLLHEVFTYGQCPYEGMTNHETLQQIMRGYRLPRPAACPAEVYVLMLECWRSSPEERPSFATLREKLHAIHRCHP
T3 sequence (Q13153 whole entry): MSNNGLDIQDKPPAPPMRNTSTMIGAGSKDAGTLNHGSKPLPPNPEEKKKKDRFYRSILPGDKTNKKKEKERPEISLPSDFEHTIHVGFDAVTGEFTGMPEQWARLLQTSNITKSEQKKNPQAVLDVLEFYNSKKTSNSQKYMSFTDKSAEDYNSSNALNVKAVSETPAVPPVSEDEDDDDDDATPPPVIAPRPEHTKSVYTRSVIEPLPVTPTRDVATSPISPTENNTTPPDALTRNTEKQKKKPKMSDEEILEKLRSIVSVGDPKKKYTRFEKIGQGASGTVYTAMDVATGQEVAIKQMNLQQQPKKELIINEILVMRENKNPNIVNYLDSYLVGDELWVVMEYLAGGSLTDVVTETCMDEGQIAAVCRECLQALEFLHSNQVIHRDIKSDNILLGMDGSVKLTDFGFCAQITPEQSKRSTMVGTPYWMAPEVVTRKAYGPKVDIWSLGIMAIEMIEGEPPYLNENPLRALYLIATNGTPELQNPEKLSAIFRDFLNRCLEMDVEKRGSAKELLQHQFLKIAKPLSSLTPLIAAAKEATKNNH
T6 sequence (P04626 23-1255): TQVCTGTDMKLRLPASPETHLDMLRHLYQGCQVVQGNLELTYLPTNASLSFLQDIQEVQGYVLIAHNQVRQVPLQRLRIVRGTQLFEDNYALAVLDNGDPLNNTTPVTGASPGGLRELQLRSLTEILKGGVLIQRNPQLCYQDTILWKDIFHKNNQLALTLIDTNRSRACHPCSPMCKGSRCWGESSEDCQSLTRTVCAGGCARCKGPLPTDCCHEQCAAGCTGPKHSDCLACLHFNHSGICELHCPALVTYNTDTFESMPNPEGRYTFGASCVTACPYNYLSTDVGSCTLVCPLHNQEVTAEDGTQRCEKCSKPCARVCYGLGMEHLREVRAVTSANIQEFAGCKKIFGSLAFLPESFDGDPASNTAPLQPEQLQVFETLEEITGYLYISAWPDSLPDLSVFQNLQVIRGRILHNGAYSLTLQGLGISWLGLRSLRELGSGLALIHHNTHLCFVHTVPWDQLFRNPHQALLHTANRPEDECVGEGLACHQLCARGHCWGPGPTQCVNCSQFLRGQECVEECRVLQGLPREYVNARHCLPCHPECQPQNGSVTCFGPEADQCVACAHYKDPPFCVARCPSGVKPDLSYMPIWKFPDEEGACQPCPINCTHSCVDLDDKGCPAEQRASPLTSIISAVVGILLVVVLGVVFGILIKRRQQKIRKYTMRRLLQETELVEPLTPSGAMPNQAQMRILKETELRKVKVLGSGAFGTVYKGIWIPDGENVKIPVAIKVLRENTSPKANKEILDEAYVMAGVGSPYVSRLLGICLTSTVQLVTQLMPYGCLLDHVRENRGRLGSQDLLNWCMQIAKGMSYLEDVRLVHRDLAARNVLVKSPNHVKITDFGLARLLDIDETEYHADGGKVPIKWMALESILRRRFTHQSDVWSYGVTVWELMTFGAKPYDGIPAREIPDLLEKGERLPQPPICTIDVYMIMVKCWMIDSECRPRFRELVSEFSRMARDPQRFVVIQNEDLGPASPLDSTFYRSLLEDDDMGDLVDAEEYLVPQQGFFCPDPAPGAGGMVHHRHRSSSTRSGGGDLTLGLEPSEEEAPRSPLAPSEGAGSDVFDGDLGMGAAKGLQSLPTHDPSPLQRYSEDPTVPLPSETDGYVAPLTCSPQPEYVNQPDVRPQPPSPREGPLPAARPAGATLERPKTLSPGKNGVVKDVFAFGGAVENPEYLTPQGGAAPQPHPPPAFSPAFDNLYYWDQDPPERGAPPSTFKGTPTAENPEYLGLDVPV
T8 sequence (P06241 whole entry): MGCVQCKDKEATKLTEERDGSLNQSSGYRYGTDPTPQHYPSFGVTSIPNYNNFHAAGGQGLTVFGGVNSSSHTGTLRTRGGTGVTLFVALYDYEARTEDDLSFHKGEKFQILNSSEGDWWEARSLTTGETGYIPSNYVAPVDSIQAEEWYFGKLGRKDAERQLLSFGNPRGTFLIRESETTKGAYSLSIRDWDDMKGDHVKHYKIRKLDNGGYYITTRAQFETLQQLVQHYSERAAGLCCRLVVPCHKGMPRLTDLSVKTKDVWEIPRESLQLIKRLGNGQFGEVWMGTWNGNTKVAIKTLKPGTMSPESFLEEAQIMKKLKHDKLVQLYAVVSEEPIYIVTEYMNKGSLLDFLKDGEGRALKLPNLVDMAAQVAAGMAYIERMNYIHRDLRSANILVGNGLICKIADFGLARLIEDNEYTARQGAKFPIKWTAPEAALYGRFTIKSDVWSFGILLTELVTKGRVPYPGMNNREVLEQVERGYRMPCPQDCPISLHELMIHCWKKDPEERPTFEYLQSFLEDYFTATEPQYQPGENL
T9 sequence (P07947 whole entry): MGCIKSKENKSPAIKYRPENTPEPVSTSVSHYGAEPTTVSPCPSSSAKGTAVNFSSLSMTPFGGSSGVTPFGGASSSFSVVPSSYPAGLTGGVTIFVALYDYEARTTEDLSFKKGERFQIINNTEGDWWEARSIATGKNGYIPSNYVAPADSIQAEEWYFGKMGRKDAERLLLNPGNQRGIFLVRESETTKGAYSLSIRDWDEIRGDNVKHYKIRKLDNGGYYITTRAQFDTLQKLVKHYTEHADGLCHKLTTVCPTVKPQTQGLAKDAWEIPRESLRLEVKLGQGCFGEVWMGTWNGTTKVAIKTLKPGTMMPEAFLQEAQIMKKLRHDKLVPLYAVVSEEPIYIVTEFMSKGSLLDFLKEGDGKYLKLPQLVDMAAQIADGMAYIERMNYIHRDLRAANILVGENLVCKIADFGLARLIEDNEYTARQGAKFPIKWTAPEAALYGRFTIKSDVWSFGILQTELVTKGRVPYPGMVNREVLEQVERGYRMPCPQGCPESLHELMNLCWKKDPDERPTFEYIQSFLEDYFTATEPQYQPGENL

Regarding `O=C(c1ccc(Oc2ccccc2)cc1Cl)c1c[nH]c2ncnc(N[C@@H]3CC[C@@H](CO)OC3)c12` [ARQ-531, (2-chloro-4-phenoxyphenyl) (4-(((3R,6S)-6-(hydroxymethyl)tetrahydro-2H-pyran-3-yl)amino)-7H-pyrrolo[2,3-d]pyrimidin-5-yl) methanone], the inhibition at 1 µM at BMX was 90 to 100%; on MINK1, 50 to 69%; on PAK1, 50 to 69%; on SRMS it was 90 to 100%; on AuroraA (setting [1]), no less than 50%; on AuroraA (setting [2]) it was 50 to 69%. The inhibition at 1 µM at ERBB2 lay in the range of 70 to 89%.
Broadly, the pIC50 is the negative decadic logarithm of the IC50, by convention in mol/L. With `Cc1cccnc1[C@H]1CCC[C@@H](c2ncccc2C)N1CCN1CCN(C(=O)c2ccc(-c3cc4c(-c5cccc(NC(=O)c6ccccc6)c5C)ncnc4[nH]3)cc2)CC1` [Compound I-10, N-(3-(6-(4-(4-(2-((2R,6S)-2,6-bis(3-methylpyridin-2-yl)piperidin-1-yl)ethyl)piperazine-1-carbonyl)phenyl)-7H-pyrrolo[2,3-d]pyrimidin-4-yl)-2-methylphenyl)benzamide], the pIC50 in the assay with Ramos cell line (setting [3]) is 5.40 to 5.70; in the assay with Ramos cell line (read-out: IC50) it was 5.57; in the assay with GBM-U251MG it was 5.67. Moreover, the inhibition at 1 µM at SRC was less than 50%; at BMX, 70 to 89%; at MINK1, less than 50%; on PAK1, less than 50%; on SRMS, less than 50%; on AuroraA (setting [1]) it was 50 to 89%. The inhibition at 1 µM is 50 to 69% at AuroraA (setting [2]), less than 50% at ERBB2, less than 50% at FYN and less than 50% at YES. Moreover, the Emax in the assay with GBM-U251MG was determined as 98%.
In the case of `Cc1cc(-c2ccnc(Nc3cnn(CCN4[C@@H](c5ncccc5C)CCC[C@H]4c4ncccc4C)c3)n2)ccc1CNC(=O)N1CC(OC(C)C)C1` [Compound I-11], in the assay on GBM-U251MG, the Emax amounted to 82% and the pIC50 is 6.03.
For the molecule `Cc1cccnc1[C@H]1CCC[C@@H](c2ncccc2C)N1CCCCNC(=O)[C@@H]1CC[C@@H](Nc2ncnc3[nH]cc(C(=O)c4ccc(Oc5ccccc5)cc4Cl)c23)CO1` [Compound I-16], the pIC50 was 5.82 to 6.00 with Ramos cell line (setting [3]) and 5.83 with Ramos cell line (read-out: IC50).
The corresponding values for `Cc1cccnc1[C@H]1CCC[C@@H](c2ncccc2C)N1CCCCNC(=O)OC[C@@H]1CC[C@@H](Nc2ncnc3[nH]cc(C(=O)c4ccc(Oc5ccccc5)cc4Cl)c23)CO1` [Compound I-18] are 5.82 to 6.00 and 5.88.
Consider `COc1ccc(F)cc1C(=O)NCc1ccc(-c2nn([C@@H](C)C(F)(F)F)c(N)c2C(N)=O)cc1` [LOXO-305, pirtobrutinib], for which the inhibition at 1 µM is less than 50% at SRC; 50 to 69% at BMX; less than 50% at MINK1; less than 50% at PAK1; less than 50% on SRMS; less than 50% on AuroraA (setting [2]). Moreover, the results for the inhibition at 1 µM at ERBB2, on FYN and at YES were 50 to 69%, less than 50% and less than 50%, respectively.
`C=CC(=O)N1CCC([C@@H]2CCNc3c(C(N)=O)c(-c4ccc(Oc5ccccc5)cc4)nn32)CC1` [Zanubrutinib, (7S)-2-(4-phenoxyphenyl)-7-(1-prop-2-enoylpiperidin-4-yl)-4,5,6,7-tetrahydropyrazolo[1,5-a]pyrimidine-3-carboxamide]: the pIC50 is no more than 5.40 in the assay with Ramos cell line (setting [3]) and 4.93 in the assay with Ramos cell line (read-out: IC50). The inhibition at 1 µM at MINK1, at PAK1, on SRMS, on AuroraA (setting [2]) and on ERBB2 was less than 50% throughout.
